Reference: patent US10842727B2, “Cosmetic composition comprising white rose flower extract for skin whitening and improving skin wrinkle” (CHUNGBUK NATIONAL UNIVERSITY INDUSTRY-ACADEMIC COOPERATION …, priority 2014, dated 2020)

Assays:
[1] = test system: collagen matrix metalloproteinase-1 (MMP-1); experiment: Collagen matrix metalloproteinase-1 (MMP-1) activity inhibition, collagenase type-1 on bovine tendon collagen, ninhydrin absorbance 600 nm; assay type: biochemical; details: method of Example 3
Procedure: As part of measuring a wrinkle alleviation effect of the white rose petal extract, effects of inhibiting activity of collagen matrix metalloproteinase-1 (MMP-1) of the extracts were measured with reference to the guideline of “beauty-related functional tests (pp. 821-858)” of Korea health official compendium research society foundation.
When simply describing the effect, 25 mg of bovine tendon collagen was dissolved in a 0.05 M tris(hydroxymethyl)-methyl-2-aminoethane sulfonate (TES) buffer and then left for 15 minutes at 37° C. Next, a test material for each concentration was added and then additionally reacted with collagenase type-1 for 5 hours at 37° C. 0.2 mL of a reaction solution was taken and added to 1 mL of a buffer [4% ninhydrin in methyl cellosolve (2-methoxyethanol)+0.2 M sodium citrate with 0.71 mM stannous chloride]. The reaction solution was boiled for 20 minutes, added with n-propanol, and then left for 15 minutes and then absorbance was measured at 600 nm. On the basis of a change in absorbance when only the buffer without the white rose fractions was added as a reference (100%), reduction of the absorbance caused by the white rose fractions for each concentration was represented by an inhibition rate.

mushroom tyrosinase = experiment: Melanin synthase (tyrosinase) inhibition with L-DOPA, absorbance 475 nm; assay type: biochemical; details: method of Example 4
Procedure: Meanwhile, in order to measure a skin whitening effect of the white rose petal extract, an effect of inhibiting activity of tyrosinase as melanin synthase was measured with reference to the guideline of “beauty-related functional tests (pp. 821-858)” of Korea health official compendium research society foundation. […] In this case, on the basis of a change in absorbance when only the buffer without the white rose fractions was added as a reference (100%), reduction of the absorbance caused by the white rose fractions for each concentration was represented by an inhibition rate.

B16 mouse melanoma cells = experiment: Melanin synthesis inhibition in α-MSH-treated cells; assay type: cell-based; details: method of Example 5
Procedure: In order to more definitize a skin whitening effect of the white rose petal extract, the inventors measured a melanin synthesis inhibitory effect of the white rose petal extract at a cell level with reference to the guideline of “beauty-related functional tests (pp. 821-858)” of Korea health official compendium research society foundation (2004).
When simply describing this, B16 mouse melanoma cells were dispensed to 1×10^4 cells/well (0.5 mL) in a […] plate and cultured for 24 hours. The B16 mouse melanoma cells was treated with the white rose fraction for each concentration and a α-melanocyte stimulating hormone (MSH) and additionally cultured for 3 days at 37° C. The cells were lysed by adding 0.15 mL of 1 M NaOH to a culture medium and boiled for 5 minutes to elute the melanin. 0.1 mL of the eluate was taken and absorbance at 490 nm was measured. A standard calibration curve was created by synthetic melanin and the concentration was quantified and an inhibition rate for each concentration of the white rose fraction was proposed based on a melanin production amount when the sample was not treated as a reference (100%).

- tyrosinase inhibition activity (in words) (mushroom tyrosinase): excellent tyrosinase inhibition activity
Structure (SMILES): COc1c(CC=C(C)C)c(O)c2c(=O)c3c(O)ccc(OC)c3oc2c1CC=C(C)C [3,5-di-o-methyl-gartanin]
- inhibition effect of MMP-1 (in words) [1]: particularly excellent inhibition effect of MMP-1
- melanin synthesis inhibitory effect (in words) (B16 mouse melanoma cells): efficiently inhibited
